One molecule from patent publication US20100120788A1, “IDENTIFICATION OF POLYNUCLEOTIDES FOR […] OF COMPOUNDS THAT […] WITH AND/OR MODULATE PROTEIN TYROSINE KINASES AND/OR PROTEIN TYROSINE KINASE […] IN PROSTATE CELLS” (Bristol-Myers Squibb Company, priority 2007, published 2010) can be followed below.

Each structure is given as a SMILES string.

Test [1] deals with secreted uPA protein in PC3 cells. Briefly: uPA protein ELISA assay of culture medium. It counts as cell-based, human. Particulars: different doses, 24 h, per 50,000 viable cells. From the text: FIG. 3. PLAU gene expression and regulation by dasatinib analyzed at mRNA and protein levels. (A) Differential baseline expression of PLAU gene between resistant (R, in black) and sensitive (S, in red) cell lines. The X-values are the expression level in log2-scale. The resistant cell line expressing high level of PLAU was WPMY1 and the sensitive cell line expressing low level of PLAU was LNCaP. (B) Down-regulation of PLAU mRNA level by dasatinib-treatment in 5 sensitive cell lines. The cells were treated with 100 nM dasatinib (+D) or DMSO (Ctrl) for 48 hours. The p value was 0.048 in paired t-test, indicating a significant reduction of PLAU mRNA following dasatinib treatment. (C) Correlation between dasatinib-induced PLAU mRNA down-regulation with the sensitivity of cell lines to dasatinib. […] The amount of uPA protein secreted into the culture medium by 50,000 viable cells was assessed by ELISA assay. […]
Cell were seeded in 24-well plates at density of 25,000 cells/well. […] Total number of cells were also quantitated using a cell counter, and the number of viable cells were assessed with Trypan Blue. The amount of uPA protein in the supernatant was determined using the uPA ELISA kit (America Diagnostica, Stamford, Conn.), and the concentrations of uPA secreted by 50,000 viable cells into the medium were calculated.
On the technique in general: In an ELISA, binding on a coated surface is turned into a signal by an enzyme label.

In a further test the test system is PLAU mRNA. Description: Down-regulation of PLAU mRNA expression by dasatinib. It counts as cell-based, human. Particulars: for reduction of PLAU mRNA expression: 100 nM, 48 hours vs DMSO. The source says:
FIG. 3. PLAU gene expression and regulation by dasatinib analyzed at mRNA and protein levels. (A) Differential baseline expression of PLAU gene between resistant (R, in black) and sensitive (S, in red) cell lines. The X-values are the expression level in log2-scale. The resistant cell line expressing high level of PLAU was WPMY1 and the sensitive cell line expressing low level of PLAU was LNCaP. (B) Down-regulation of PLAU mRNA level by dasatinib-treatment in 5 sensitive cell lines. The cells were treated with 100 nM dasatinib (+D) or DMSO (Ctrl) for 48 hours. The p value was 0.048 in paired t-test, indicating a significant reduction of PLAU mRNA following dasatinib treatment. (C) Correlation between dasatinib-induced PLAU mRNA down-regulation with the sensitivity of cell lines to dasatinib. In addition to those 5 sensitive cells, three dasatinib-resistant cell lines 22Rv, MDAPCa2b, and VCaP were also treated with dasatinib same as in FIG. 3B. The extent of PLAU down-regulation by dasatinib (Y-axis) was negatively correlated with the log2IC50 values (X-axis) of these 8 cell lines. (D) Dose-dependent down-regulation of PLAU mRNA expression in PC3 cells. Cells were treated with or without different concentrations of dasatinib for 4 or 24 hours. The PLAU expression level relative to control was shown in Y-axis. (E) Dose-dependent inhibition of secreted uPA protein in PC3 cells by dasatinib but not by TAXOL®. Cells were treated with different doses of dasatinib, TAXOL® or DMSO for 24 hours. The amount of uPA protein secreted into the culture medium by 50,000 viable cells was assessed by ELISA assay.
The down-regulation of PLAU mRNA expression by dasatinib was observed (FIG. 3B).
AFFYMETRIX® HG-U133v2 gene chips containing ˜22,000 probe sets were used for gene expression profiling (Affymetrix, Santa Clara, Calif.). Total RNA was isolated from the cells using the RNeasy kits (Qiagen, Valencia, Calif.). The quality of the RNA was assessed using an Agilent 2100 Bioanalyzer (Agilent, Santa Clara, Calif.). Ten μg of total RNA was used for the preparation of biotin-labeled cRNA. Chip hybridization, scanning and data acquisition were performed according to the Expression Analysis Technical Manual provided by the manufacturer.
The raw expression data were normalized using an RMA algorithm and analyzed in PARTEK® Discovery Suite software (Partek, St Louis, Mo.). Two statistical analyses including 1-way ANOVA for comparison of gene expression between sensitive and resistant cell line groups, and Pearson correlation between gene expression level and log2IC50 values were performed to identify genes whose baseline expression levels correlated with the sensitivity to dasatinib in 16 prostate cell lines (p value<0.05 in both analyses). […] ESTs and gene duplicates were eliminated from the final list. Gene expression profiles of drug treated (100 nM for 2 days) cell lines were compared with those of DMSO control using paired t-test (p value<0.05). Clustering analysis was performed using GeneCluster software and heatmaps were generated with red and green indicating high or low expression respectively.

As for `Cc1nc(Nc2ncc(C(=O)Nc3c(C)cccc3Cl)s2)cc(N2CCN(CCO)CC2)n1` [BMS-A, N-(2-chloro-6-methylphenyl)-2-[[6-[4-(2-hydroxyethyl)-1-piperazinyl]-2-methyl-4-pyrimidinyl]amino]-5-thiazolecarboxamide], in test [1], the “amount of uPA protein secreted into the growth medium” value is given as “reduced”. For the same molecule, the “reduction of PLAU mRNA expression” value in the test on PLAU mRNA (DU145 cells) was “approximately 50%”; with PLAU mRNA (LNCaP cells), “showed a reduction”; in the test on PLAU mRNA (PC3 cells) it was “approximately 50%”; in the test on PLAU mRNA (PWR1E cells (CK5-expressing)), “relatively mild reduction”; in the test with PLAU mRNA (RWPE2 cells (CK5-expressing)) it was “relatively mild reduction”. For the same molecule, the “reduction of PLAU mRNA level, multiple-dose treatment study” value was “minimal” in the test on PLAU mRNA (PC3 cells, 4 h, all doses vs untreated control) and “dramatic” in the test with PLAU mRNA (PC3 cells, 24 h, dose-dependent).
